Source: article PMC11433764, “A Novel Compound from the Phenylsulfonylpiperazine Class: Evaluation of In Vitro Activity on Luminal Breast Cancer Cells” (Molecules, 2024)

How the values were obtained:
MDA-MB-231 = assay: MTT cell viability, MDA-MB-231; type: cell-based
Experimental: (§1) Four different breast cells lines were used in this study: MCF-10A (non-tumorigenic), MCF7 (ER+ BC), MDA-MB453 (HER2+ BC) and MDA-MB231 (TNBC). All lineages were obtained from the American Type Culture Collection (ATCC; Manassas, VA, USA) and maintained at a temperature of 37 °C according to the supplier’s recommendations. Only MDA-MB231 cells were not kept in an atmosphere of 5% CO2. MCF-10A was grown in Dulbecco’s Modified Eagle’s Medium (DMEM F12, Gibco, ThermoFisher Scientific, Waltham, MA, USA) supplemented with 20 ng/mL epidermal growth factor (Gibco, ThermoFisher Scientific, Waltham, MA, USA), 0.5 μg/mL hydrocortisone (Sigma-Aldrich, Sigma-Aldrich, St. Louis, MO, USA) and 10 μg/mL insulin (Gibco, ThermoFisher Scientific, Waltham, MA, USA). MCF7 was cultivated in Roswell Park Memorial Institute Medium (RPMI-1640, Gibco, ThermoFisher Scientific, Waltham, MA, USA), MDA-MB453 in IMDM and MDA-MB231 in Leibovitz’s medium (L-15, Gibco, ThermoFisher Scientific, Waltham, MA, USA). All media were supplemented with 10% fetal bovine serum (FBS, Gibco, ThermoFisher Scientific, Waltham, MA, USA) and 50 µg/mL of gentamicin (Cultilab, Campinas, SP, Brazil). The cells were confirmed to be free of mycoplasma and passaged using a 0.25% trypsin-EDTA solution when confluency reached 80–90%.
(§2) Cell viability was determined by spectrophotometric quantification of MTT (3-[4,5-dimethyl-thiazol-2-yl]-2,5-diphenyltetrazolium bromide—Invitrogen. Waltham, MA, USA) reduction to formazan crystals. Cells were seeded at the density of 1 × 10^4 cells/well (MCF-10A, MDA-MB453), 1.5 × 10^4 cells/well (MDA-MB231) and 3 × 10^3 cells/well (MCF7) in 96-well culture dishes and incubated with different concentrations of the compounds (1.25, 2.5, 5, 10, 20, 40, 80 and 160 µM) for 48 h. The medium was than replaced by MTT solution (0.5 mg/mL) and plates were kept at 37 °C for 4 h. After the aspiration of the media, the formazan crystals were diluted with 100 μL of dimethyl-sulfoxide (DMSO)/well and the absorbance at 570 nm was measured using a spectrophotometer (Thermo Plate TP-Reader, Waltham, MA, USA). Cytotoxicity was calculated using the following formula: Cytotoxicity (%) = [absorbance of cells treated with the compounds/absorbance of cells treated with DMSO) × 100]. The IC50 was determined for each compound and was defined as the concentration required to inhibit 50% of cell growth, compared to the control sample (cells treated with DMSO 0.05%).
(§3) Data were presented as the mean ± standard deviation (SD) and analyzed using GraphPad Prism 9.0 software (GraphPad Software Inc., La Jolla, CA, USA). All data were assayed in triplicate. Statistical analysis was performed using one-way ANOVA, Tukey´s HSD post hoc test and Student’s t-test. The IC50 was calculated using non-linear regression and the selectivity index (SI) was calculated by the ratio between the IC50 values corresponding to the non-tumor cell lineage (MCF-10A) and the IC50 values corresponding to the BC cell lines. Statistical significance was accepted at p values < 0.05.

MCF7 [1] = assay: MTT cell viability, MCF7; type: cell-based; details: Homo sapiens, MCF7; 48 h, MTT, 1.25–160 μM; read-out: IC50 MCF7
Experimental: as §1, §2, §3

[2] = ABTS radical scavenging assay; details: 40 µM (greatest activity among 10, 20, 40, 80 and 160 µM)
Experimental: The ABTS^+ radical cation scavenging efficacy for compound 3 was determined according to the method described earlier with some modifications. Briefly, an equal amount of 7 mM ABTS^+ (2,20-azino-bis(3-ethylbenzothiazoline-6-sulfonic acid)) stock solution was mixed and kept in the dark at room temperature for 12 h with a 140 mM potassium persulfate stock solution. The ABTS^+ was then diluted in ethanol until it reached a UV absorption value of 0.700 (±0.200) at 734 nm. Compound 3 (10, 20, 40, 80 and 160 µM) was mixed with ABTS^+ in 96-well plates, and absorbance was read at 415 nm using a microplate reader (Thermo Plate TP-Reader, ThermoFisher Scientific, Waltham, MA, USA). The scavenging capability of ABTS^+ radical was expressed as Trolox (0.1 to 2 mM) equivalents.

MCF7 [3] = assay: Wound-healing migration assay; type: cell-based
Experimental: Wound-healing analysis was applied to test cell migration ability. MCF7 cells were seeded in a 6-well plate at a density of 1 × 10^6 cells/well and, after confluence, a “wound” in the monolayer was introduced by a sterilized 200 μL pipet tip. Cells were washed with PBS and treated with compound 3 (1.125, 2.25 and 4.5 µM) for 24 or 48 h in a serum-free medium. Cells were photographed at 0 h, 24 or 48 h under a light microscope (Evos®, ThermoFisher Scientific, Waltham, MA, USA) at 10× objective using the same randomly chosen fields. The cell-free area was measured by ImageJ v. 1.54 g software and migration in the control well was considered to be 100%.

O=C(c1ccc(-n2cnnn2)cc1)N1CCN(S(=O)(=O)c2ccc(Cl)cc2)CC1 [Compound 3, (4-(1H-tetrazol-1-yl)phenyl)(4-((4-chlorophenyl)sulfonyl)piperazin-1-yl)methanone]
IC50 (MDA-MB-231; Homo sapiens, MDA-MB-231, 48 h, MTT, 1.25–160 μM, read-out: IC50 MDA-MB-231): 83 µM | SI MDA-MB-231 (MDA-MB-231; IC50 MCF10A / IC50 MDA-MB-231): >1.93 | IC50 (MCF7 [1]): 4.48 µM | ABTS inhibition of free radicals [2]: 40% | Migration of MCF7 cells (MCF7 [3]; 1.13, 2.25 and 4.50 µM, 48 h): significantly inhibited | Migration of MCF7 cells (MCF7 [3]; 2.25 and 4.50 µM, 24 h): significantly inhibited
